In one series the test system is L1210. In words: cells. The following applies: Mus musculus, L1210, read-out: ID50.
Series [1] concerns Nucleic Acid.
In series [2] the test system is Nucleic Acid. The source holds these as a separate data set.
Another series in a line: physchem. As to conditions: 20% aqueous DMF.

Each structure is given as a SMILES string.

Description for L1210: Growth inhibition against cultured murine L1210 leukemia cells
Description for physchem: pKa value determined spectrophotometrically in 20% aqueous DMF

On to `COc1cc(NS(C)(=O)=O)ccc1Nc1c2ccccc2nc2cc(C)ccc12`, for which, in the series on L1210, the IC50 worked out at 12 nM. Besides, the Log K stood at 6.08 with Nucleic Acid [1] and 5.95 in the series on Nucleic Acid [2].
As for `COc1cc(NS(C)(=O)=O)ccc1Nc1c2ccccc2nc2cc(I)ccc12`, the IC50 in the series on L1210 amounted to 50 nM. Also, the results for the Log K in the series with Nucleic Acid [1] and with Nucleic Acid [2] were 6.2 and 6.35, respectively.
For `COc1cc(NS(C)(=O)=O)ccc1Nc1c2ccccc2nc2c(C(N)=O)cccc12`, in the series on L1210, the IC50 was 270 nM. For the same molecule, the Log K with Nucleic Acid [1] is 6.13; in the series on Nucleic Acid [2] it was 5.47.
The molecule `COc1cc(NS(C)(=O)=O)ccc1Nc1c2ccc([N+](=O)[O-])cc2nc2c(C(N)=O)cccc12` registered a pKa in “physchem” of 4.71. For the same molecule, the IC50 in the series on L1210 is 350 nM. Further, the Log K in the series with Nucleic Acid [1] was 6.4; in the series on Nucleic Acid [2], 5.96.
In the case of `COc1ccc2c(Nc3ccc(NS(C)(=O)=O)cc3OC)c3ccccc3nc2c1`, the IC50 in the series on L1210 was found to be 22 nM. The Log K in the series with Nucleic Acid [1] came to 5.97; with Nucleic Acid [2] it was 5.83.
Turning to `COc1cc(NS(C)(=O)=O)ccc1Nc1c2ccccc2nc2cc(Br)ccc12`, in the series with L1210, the IC50 is 50 nM. The Log K amounted to 6.12 with Nucleic Acid [1] and 6.29 in the series with Nucleic Acid [2].
In the case of `CNC(=O)c1cccc2c(Nc3ccc(NS(C)(=O)=O)cc3OC)c3ccccc3nc12`, the IC50 in the series on L1210 amounted to 270 nM. The figures for the Log K in the series on Nucleic Acid [1] and with Nucleic Acid [2] were 6.18 and 5.54, respectively.
Consider `CNC(=O)c1cccc2c(Nc3ccc(NS(C)(=O)=O)cc3OC)c3ccc(N)cc3nc12`, for which, in the series with L1210, the IC50 came out at 21 nM. Besides, the Log K in the series on Nucleic Acid [1] stood at 6.82; in the series on Nucleic Acid [2], 6.29.
Regarding `COc1cc(NS(C)(=O)=O)ccc1Nc1c2ccccc2nc2cc([N+](=O)[O-])ccc12`, in “physchem”, the pKa came out at 5.52. For the same molecule, the IC50 in the series on L1210 came to 110 nM. Besides, the Log K with Nucleic Acid [1] was 6.13; in the series with Nucleic Acid [2], 5.65.
Take `CNC(=O)c1cccc2c(Nc3ccc(NS(C)(=O)=O)cc3OC)c3ccc([N+](=O)[O-])cc3nc12`: the pKa in the series “physchem” was found to be 4.71. Also, in the series on L1210, the IC50 is 303 nM. For the same molecule, the Log K in the series with Nucleic Acid [1] is 6.65; with Nucleic Acid [2] it was 5.71.
Molecule `CNC(=O)c1cccc2c(Nc3ccc(NS(C)(=O)=O)cc3OC)c3ccc(C)cc3nc12` came in with a pKa in “physchem” of 4.71. Also, the IC50 in the series on L1210 is 170 nM. For the same molecule, the Log K in the series with Nucleic Acid [1] was found to be 6.68; in the series with Nucleic Acid [2], 6.22.
In the series “physchem”, `CNC(=O)c1cccc2c(Nc3ccc(NS(C)(=O)=O)cc3OC)c3ccc(OC)cc3nc12` registered a pKa of 4.82. Besides, the IC50 in the series on L1210 came to 68 nM. The Log K is 6.82 with Nucleic Acid [1] and 6.38 in the series on Nucleic Acid [2].
Regarding `CNC(=O)c1cccc2c(Nc3ccc(NS(C)(=O)=O)cc3OC)c3ccc(Cl)cc3nc12`, the pKa in the series “physchem” stood at 5.68. Further, the IC50 in the series on L1210 is 217 nM. For the same molecule, the Log K with Nucleic Acid [1] was 6.65; with Nucleic Acid [2], 6.29.
In “physchem”, `COc1cc(NS(C)(=O)=O)ccc1Nc1c2ccccc2nc2cc(N)ccc12` showed a pKa of 9.5. For the same molecule, the IC50 with L1210 is 5.5 nM. Moreover, the Log K in the series on Nucleic Acid [1] was determined as 6.13; in the series on Nucleic Acid [2] it was 6.21.
Regarding `COc1cc(NS(C)(=O)=O)ccc1Nc1c2ccc(C)cc2nc2c(C(N)=O)cccc12`, the pKa in the series “physchem” was found to be 4.71. For the same molecule, in the series on L1210, the IC50 came out at 200 nM. Further, the results for the Log K with Nucleic Acid [1] and in the series with Nucleic Acid [2] were 6.3 and 6.4, respectively.
The corresponding values for `COc1cc(NS(C)(=O)=O)ccc1Nc1c2ccc(Cl)cc2nc2c(C(N)=O)cccc12` are 5.68, 520 nM, 6.58 and 6.33.
Regarding `COc1cc(NS(C)(=O)=O)ccc1Nc1c2ccc(Cl)cc2nc2c(C(=O)NCC(N)=O)cccc12`, in the series “physchem”, the pKa was determined as 5.5. Moreover, the IC50 with L1210 turned out to be 890 nM. Also, the Log K with Nucleic Acid [1] turned out to be 6.83; with Nucleic Acid [2], 6.06.
As for `COc1cc(NS(C)(=O)=O)ccc1Nc1c2ccccc2nc2c(C(=O)NCC(N)=O)cccc12`, the IC50 in the series with L1210 came out at 850 nM. Further, the Log K with Nucleic Acid [1] was determined as 6.4; in the series with Nucleic Acid [2], 5.39.
Take `COc1cc(NS(C)(=O)=O)ccc1Nc1c2ccccc2nc2cc(Cl)ccc12`: the IC50 in the series on L1210 stood at 70 nM. Also, the results for the Log K in the series on Nucleic Acid [1] and with Nucleic Acid [2] were 5.98 and 6.06, respectively.
Turning to `COc1cc(NS(C)(=O)=O)ccc1Nc1c2ccccc2nc2ccccc12`, the Log K with Nucleic Acid [1] was 5.65; in the series with Nucleic Acid [2], 5.57.
In the series “physchem”, `COc1cc(NS(C)(=O)=O)ccc1Nc1c2ccc(C)cc2nc2c(C(=O)NCC(N)=O)cccc12` yielded a pKa of 4.53. The IC50 in the series with L1210 worked out at 460 nM. Besides, the Log K turned out to be 6.69 in the series with Nucleic Acid [1] and 6 with Nucleic Acid [2].

What is called pKa is the negative logarithm of the acid dissociation constant. A low value points to a group that gives up its proton readily.

(Values after ChEMBL document CHEMBL1122503 (J Med Chem, 1983).)
